Experimental data taken from the supplement of paper PMC10331698.
± gives the standard deviation of the averaged measurements.

Tests used:
Assay in all cases: level (log10 ratio to DMSO vehicle control); higher = higher biomarker level / cell amount than vehicle control
Settings in all cases: in DMSO
[1] = compound: FC(F)(F)C(F)(F)C(F)(F)C(F)(F)C(F)(F)C(F)(F)C(F)(F)CCI [1-Iodo-1H,1H,2H,2H-perfluorononane]
Protocol: (§1)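 BioMAP Diversity Plus panel of 12 human primary cell co-culture systems (3C, 4H, LPS, SAg, BT, BF4T, BE3C, CASM3C, HDF3CGF, KF3CT, MyoF, Mphg). Compounds were added 1 h before stimulation and left for 24 h (MyoF 48 h; BT 72 h for soluble read-outs or 6 d for IgG). Biomarkers were read by ELISA, cytotoxicity by SRB, PBMC viability and proliferation by Alamar Blue. Each well value was divided by the mean of 8 DMSO control wells on the same plate and log10 transformed; duplicate blinded samples were tested at 4 concentrations.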

[2] = compound: O=S(=O)(O)C(F)(F)C(F)(F)C(F)(F)C(F)(F)C(F)(F)C(F)(F)C(F)(F)C(F)(F)F [Potassium perfluorooctanesulfonate]
Protocol: as §1

[3] = compound: C=CC(=O)OCCC(F)(F)C(F)(F)C(F)(F)C(F)(F)F [2-(Perfluorobutyl)ethyl acrylate]
Protocol: as §1

Perfluorohexanoic acid = compound: O=C(O)C(F)(F)C(F)(F)C(F)(F)C(F)(F)C(F)(F)F [Perfluorohexanoic acid]
Protocol: as §1

Hexafluoroglutaric acid = compound: O=C(O)C(F)(F)C(F)(F)C(F)(F)C(=O)O [Hexafluoroglutaric acid]
Protocol: as §1

[4] = compound: O=S(=O)(O)C(F)(F)C(F)(F)C(F)(F)C(F)(F)C(F)(F)C(F)(F)C(F)(F)C(F)(F)F [Perfluorooctanesulfonic acid]
Protocol: as §1

[5] = compound: O=C(O)C(F)(F)C(F)(F)C(F)(F)C(F)(F)C(F)(F)C(F)(F)C(F)(F)C(F)(F)C(F)(F)C(F)(F)C(F)(F)C(F)(F)C(F)(F)F [Perfluorotetradecanoic acid]
Protocol: as §1

| Test System | level (log10) ([1]; 6700 nM) | level (log10) ([1]; 20000 nM) | level (log10) ([2]; 6700 nM) | level (log10) ([2]; 20000 nM) | level (log10) ([2]; 60000 nM) | level (log10) ([3]; 6700 nM) | level (log10) ([3]; 20000 nM) | level (log10) ([3]; 60000 nM) | level (log10) (Perfluorohexanoic acid; 6700 nM) | level (log10) (Perfluorohexanoic acid; 20000 nM) | level (log10) (Perfluorohexanoic acid; 60000 nM) | level (log10) (Hexafluoroglutaric acid; 6700 nM) | level (log10) (Hexafluoroglutaric acid; 20000 nM) | level (log10) (Hexafluoroglutaric acid; 60000 nM) | level (log10) ([4]; 6700 nM) | level (log10) ([4]; 20000 nM) | level (log10) ([4]; 60000 nM) | level (log10) ([5]; 6700 nM) | level (log10) ([5]; 20000 nM) |
| --- | --- | --- | --- | --- | --- | --- | --- | --- | --- | --- | --- | --- | --- | --- | --- | --- | --- | --- | --- |
| LPS:CD141/Thrombomodulin | -0.0265 ± 0.0021 | -0.024 ± 0.0057 | -0.0225 ± 0.028 | -0.0215 ± 0.023 | -0.025 ± 0.044 | -0.0365 ± 0.019 | -0.03 ± 0.014 | -0.038 ± 0.021 | 0.0085 ± 0.012 | 0.0065 ± 0.026 | 0.007 ± 0.017 | 0.002 ± 0.0071 | -0.022 ± 0.021 | -0.0355 ± 0.032 | -0.03 ± 0.0014 | -0.01 ± 0.0071 | -0.036 ± 0.031 | 0.009 ± 0.1 | -0.002 ± 0.072 |
| LPS:CD142/Tissue Factor | 0.046 ± 0.073 | -0.0215 ± 0.09 | -0.0095 ± 0.019 | -0.004 ± 0.0028 | -0.002 | 0.027 ± 0.016 | -0.027 ± 0.088 | -0.177 ± 0.12 | 0.0205 ± 0.021 | 0.0045 ± 0.011 | 0.015 ± 0.0071 | 0.0325 ± 0.08 | -0.0085 ± 0.077 | -0.0285 ± 0.081 | -0.0135 ± 0.00071 | -0.0265 ± 0.019 | -0.0105 ± 0.0092 | 0.0225 ± 0.04 | 0.0025 ± 0.098 |
| LPS:CXCL8/IL-8 | 0.005 ± 0.072 | -0.001 ± 0.082 | 0.0255 ± 0.067 | 0.0435 ± 0.0092 | 0.061 ± 0.05 | 0.0145 ± 0.015 | 0.0225 ± 0.012 | -0.015 ± 0.054 | 0.0035 ± 0.016 | 0.011 ± 0.0028 | 0.0575 ± 0.0035 | -0.0235 ± 0.012 | -0.0535 ± 0.018 | -0.028 ± 0.067 | -0.0005 ± 0.011 | 0.015 ± 0.02 | 0.0235 ± 0.046 | 0.0125 ± 0.077 | 0.0255 ± 0.16 |
| LPS:IL-1alpha | -0.008 ± 0.041 | 0.031 ± 0.016 | -0.022 ± 0.0014 | -0.0195 ± 0.011 | -0.0145 ± 0.012 | 0.009 ± 0.023 | 0.031 ± 0.013 | 0.02 ± 0.021 | 0.0135 ± 0.0064 | 0.0145 ± 0.0092 | -0.003 ± 0.02 | -0.023 ± 0.02 | -0.0325 ± 0.0064 | 0.002 ± 0.037 | 0.0245 ± 0.043 | 0.023 ± 0.04 | 0.0215 ± 0.0021 | -0.031 ± 0.071 | -0.045 ± 0.09 |
| LPS:M-CSF | -0.003 ± 0.028 | -0.0015 ± 0.093 | -0.0215 ± 0.016 | 0 ± 0.024 | 0.008 ± 0.014 | -0.0115 ± 0.0021 | -0.0085 ± 0.011 | -0.052 ± 0.085 | 0.002 ± 0.0099 | -0.0125 ± 0.015 | -0.0055 ± 0.025 | 0.024 ± 0.047 | -0.019 ± 0.028 | -0.034 ± 0.051 | -0.022 ± 0.011 | 0 ± 0.031 | 0.008 ± 0.017 | -0.0435 ± 0.0021 | -0.0695 ± 0.037 |
| LPS:SRB | 0.0125 ± 0.0064 | 0.019 ± 0.017 | -0.009 ± 0.018 | -0.007 ± 0.021 | -0.001 ± 0.0057 | 0.0015 ± 0.012 | -0.0015 ± 0.0035 | -0.013 ± 0.013 | -0.013 ± 0.0071 | -0.009 | -0.0065 ± 0.0078 | -0.0025 ± 0.011 | -0.0065 ± 0.016 | 0.01 ± 0.025 | -0.003 ± 0.0085 | -0.003 ± 0.0028 | 0 | -0.011 ± 0.0042 | -0.0055 ± 0.018 |
